Test results reported in patent US20230099344A1, “COMPOUNDS AND METHODS FOR THE TARGETED DEGRADATION OF IRAK-4” (Arvinas Operations, Inc., priority 2021, published 2023).

How the values were obtained:
IRAK-4 [1] = biological target: T1, IRAK-4 (Homo sapiens, UniProt Q9NWZ3); experiment: IRAK-4 ELISA, OCI-Ly10 degradation; assay type: cell-based; set-up: endogenous in cells; settings: treated overnight; for Dmax: OCI-Ly10, OCI-Ly10 cells
T1 sequence (Q9NWZ3 1-460): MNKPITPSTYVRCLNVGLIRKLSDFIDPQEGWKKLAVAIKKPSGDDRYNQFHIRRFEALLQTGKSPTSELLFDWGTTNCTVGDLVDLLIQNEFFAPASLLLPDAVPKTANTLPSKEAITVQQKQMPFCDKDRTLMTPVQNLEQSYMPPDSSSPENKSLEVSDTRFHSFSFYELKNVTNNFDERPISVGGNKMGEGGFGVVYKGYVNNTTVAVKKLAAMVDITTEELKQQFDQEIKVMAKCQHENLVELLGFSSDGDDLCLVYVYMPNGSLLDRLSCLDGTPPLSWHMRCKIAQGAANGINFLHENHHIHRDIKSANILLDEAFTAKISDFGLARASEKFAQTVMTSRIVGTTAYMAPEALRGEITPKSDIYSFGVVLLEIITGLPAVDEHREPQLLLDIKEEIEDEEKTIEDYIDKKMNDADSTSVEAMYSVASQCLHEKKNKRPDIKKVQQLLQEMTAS
Procedure: Reagents: Human IRAK-4 Matched Antibody Pair Kit (Abcam ab218182) and ELISA Accessory Pack (Abcam ab210905).
Cell Treatment and Lysis:
1. OCI-Ly10: 200,000 cells are seeded at 1×10^6/ml in 96-well U-bottom plates 200 ul per well, treated with compound the same day. Incubate overnight. 2. PBMC: 800,000 cells are seeded at 2×10^6/ml in 96-well U-bottom deep-well plates, 400 ul per well, treated with compound the same day. Incubate overnight.
Cell lysate is collected and analyzed by ELISA for IRAK-4 levels.

IRAK-4 [2] = biological target: T1, IRAK-4; experiment: IRAK-4 ELISA, PBMC degradation; assay type: cell-based; set-up: endogenous in cells; host or cells: PBMC; settings: treated overnight
Summary of the method: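 Readout: IRAK-4 protein level in cell lysate, sandwich ELISA. Cells: OCI-Ly10 at 1×10^6/ml or PBMC at 2×10^6/ml, compound added same day, overnight incubation.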

| Structure (SMILES) | Dmax (IRAK-4 [1]) [%] | DC50 (IRAK-4 [1]; OCI-Ly10 cells) [nM] | DC50 (IRAK-4 [2]) [nM] | Dmax (IRAK-4 [2]) [%] | PBMC DC90 (IRAK-4 [2]) | OCI-LY10 Dmax (IRAK-4 [1]; OCI-Ly10 cells) |
| --- | --- | --- | --- | --- | --- | --- |
| O=C1CCC(N2C(=O)c3ccc(N4CCC(F)(CN5CCC(n6cc7cc(NC(=O)c8cnn9cccnc89)c(OCC8CC8)cc7n6)CC5)CC4)cc3C2=O)C(=O)N1 (stereo not shown) [Example 166] | ≥ 90 | 10 to 50 | 5 to 10 | ≥ 90 | C (C represents a DC90 value ≥25.0 nM and <50 nM) |  |
| CC(C)(C1CCN(c2ccc3c(c2)C(=O)N(C2CCC(=O)NC2=O)C3=O)CC1)N1CCC(N2Cc3cc(NC(=O)c4cnn5cccnc45)c(OCC4CC4)cc3C2=O)CC1 (stereo not shown) [Example 87] | ≥ 90 | 50 to 100 | 5 to 10 | 80 to 90 | D (D represents a DC90 value ≥50 nM) |  |
| O=C1CCC(N2C(=O)c3ccc(N4CCC(CN5CC[C@H](N6Cc7cc(NC(=O)c8cnn9cccnc89)c(N8CCOCC8)cc7C6=O)[C@@H](F)C5)CC4)cc3C2=O)C(=O)N1 (stereo partly shown) [Example 94] | 70 to 80 | 10 to 50 | 1 to 5 | ≥ 90 | A (A represents a DC90 value <10.0 nM) |  |
| O=C1CCC(N2C(=O)c3ccc(N4CCN(CCN5CCC([C@H](F)CN6Cc7cc(NC(=O)c8cnn9cccnc89)c(N8CCOCC8)cc7C6=O)CC5)CC4)cc3C2=O)C(=O)N1 (stereo partly shown) [Example 93] | ≥ 90 | 10 to 50 | < 1 | ≥ 90 | A (A represents a DC90 value <10.0 nM) |  |
| O=C1CCC(N2C(=O)c3ccc(N4CC(CN5CCC(N6Cc7cc(NC(=O)c8cnn9cccnc89)c(N8CCC(N9CCC9)CC8)cc7C6=O)CC5)C4)cc3C2=O)C(=O)N1 (stereo not shown) [Example 98] | ≥ 90 | 10 to 50 | 5 to 10 | 70 to 80 | D (D represents a DC90 value ≥50 nM) |  |
| CC(C)Oc1cc2c(cc1NC(=O)c1cnn3cccnc13)CN(C1CCN(CC3(F)CCN(c4ccc5c(c4)C(=O)N(C4CCC(=O)NC4=O)C5=O)CC3)CC1)C2=O (stereo not shown) [Example 58] | ≥ 90 | 10 to 50 | 1 to 5 | ≥ 90 | B (B represents a DC90 value ≥10.0 nM and <25.0 nM) |  |
| O=C1CCC(N2Cc3cc(N4CCC(CN5CCC(n6cc7cc(NC(=O)c8cnn9cc(Cl)cnc89)c(OCC8CC8)cc7n6)CC5)CC4)ccc3C2=O)C(=O)N1 (stereo not shown) [Example 129] | 80 to 90 | < 10 |  |  |  |  |
| O=C1CCC(N2C(=O)c3ccc(N4CCN(CCOC[C@H](F)Cn5cc6cc(NC(=O)c7cnn8cccnc78)c(OCC7CC7)cc6n5)CC4)cc3C2=O)C(=O)N1 (stereo partly shown) [Example 180] | ≥ 90 | 10 to 50 |  |  |  |  |
| COc1cc2nn(C3CCN(CC4CCN(c5ccc6c(c5)C(=O)N(C5CCC(=O)NC5=O)C6=O)CC4)C3)cc2cc1NC(=O)c1cnn2cccnc12 (stereo not shown) [Example 210] |  | ≥ 100 |  |  |  |  |
| O=C1CCC(N2C(=O)c3ccc(N4CC(N5CCC(n6cc7cc(NC(=O)c8cnn9cccnc89)c(OCC8CC8)cc7n6)CC5)C4)cc3C2=O)C(=O)N1 (stereo not shown) [Example 163] | ≥ 90 | 10 to 50 |  |  |  |  |
| O=C1CCC(N2Cc3cc(N4CC(CN5CCC(N6Cc7cc(NC(=O)c8cnn9cccnc89)c(N8CCC(N9CCC9)CC8)cc7C6=O)CC5)C4)ccc3C2=O)C(=O)N1 (stereo not shown) [Example 35] | ≥ 90 | 10 to 50 |  |  |  |  |
| COc1cc2nn(C3CCN(CC4CCN(c5ccc6c(c5)C(=O)N(C5CCC(=O)NC5=O)C6=O)CC4)CC3)cc2cc1NC(=O)c1cnn2cccnc12 (stereo not shown) [Example 201] | ≥ 90 | < 10 |  |  |  |  |
| COc1cc2nn([C@H]3CC[C@@H](N(C)C4CN(c5ccc6c(c5)C(=O)N(C5CCC(=O)NC5=O)C6=O)C4)CC3)cc2cc1NC(=O)c1cnn2cccnc12 (stereo partly shown) [Example 333] |  | ≥ 100 |  |  |  |  |
| Cc1cnc2c(C(=O)Nc3cc4cn(C5CCN(CC6CCN(c7ccc8c(c7)C(=O)N(C7CCC(=O)NC7=O)C8=O)CC6)CC5)nc4cc3OCC3CC3)cnn2c1 (stereo not shown) [Example 130] | ≥ 90 | 50 to 100 |  |  |  |  |
| COc1cc2nn(C3CCN(CC4CCN(c5ccc6c(c5)C(=O)N(C5CCC(=O)NC5=O)C6=O)CC4)CC3)cc2cc1NC(=O)c1cnn2cc(C)cnc12 (stereo not shown) [Example 140] | 80 to 90 | 10 to 50 |  |  |  |  |
| O=C1CCC(N2Cc3cc(C#CCN4CCC(n5cc6cc(NC(=O)c7cnn8cccnc78)c(OCC7CC7)cc6n5)CC4)ccc3C2=O)C(=O)N1 (stereo not shown) [Example 179] | < 70 | ≥ 100 |  |  |  |  |
| COc1cc2nn([C@H]3CCN(CC4CCN(c5ccc6c(c5)CN(C5CCC(=O)NC5=O)C6=O)CC4)C[C@@H]3F)cc2cc1NC(=O)c1cnn2cccnc12 (stereo partly shown) [Example 145] | ≥ 90 | 10 to 50 |  |  |  |  |
| O=C1CCC(NC(=O)c2ccc(N3CCC(CN4CCC(n5cc6cc(NC(=O)c7cnn8cccnc78)c(OCC7CC7)cc6n5)CC4)CC3)cc2F)C(=O)N1 (stereo not shown) [Example 290] |  | 50 to 100 |  |  |  | D (D represents a Dmax value <70) |
| CC(C)Oc1cc2c(cc1NC(=O)c1cnn3cccnc13)CN(CC1CN(CCc3ccc4c(c3)CN(C3CCC(=O)NC3=O)C4=O)C1)C2=O (stereo not shown) [Example 26] |  | ≥ 100 |  |  |  |  |
| CC(C)(O)c1cc2nn(C3CCN(CC4CN(c5ccc6c(c5)C(=O)N(C5CCC(=O)NC5=O)C6=O)C4)CC3)cc2cc1NC(=O)c1cnn2cccnc12 (stereo not shown) [Example 392] | 70 to 80 | 50 to 100 |  |  |  |  |
| O=C1CCC(N2C(=O)c3ccc(N4CC(CN5CCC(n6cc7cc(CC(=O)c8cnn9cc(Cl)cnc89)c(OCC8CC8)cc7n6)CC5)C4)cc3C2=O)C(=O)N1 (stereo not shown) [Example 164] | ≥ 90 | 10 to 50 |  |  |  |  |
| O=C1CCC(N2C(=O)c3ccc(N4CCC(CN5CCC(N6Cc7cc(NC(=O)c8cnn9cc(Cl)cnc89)c(N8CCOCC8)cc7C6=O)CC5)CC4)cc3C2=O)C(=O)N1 (stereo not shown) [Example 33] | 80 to 90 | 10 to 50 |  |  |  |  |
| CC(C)(O)c1cc2nn(C3CCN(CC4CN(c5ccc6c(c5)C(=O)N(C5CCC(=O)NC5=O)C6=O)C4)CC3)cc2cc1NC(=O)c1cnn2cc(Cl)cnc12 (stereo not shown) [Example 391, 6-chloro-N-(2-(1-((1-(2-(2,6-dioxopiperidin-3-yl)-1,3-dioxoisoindolin-5-yl)azetidin-3-yl)methyl)piperidin-4-yl)-6-(2-hydroxypropan-2-yl)-2H-indazol-5-yl)pyrazolo[1,5-a]pyrimidine-3-carboxamide] | 80 to 90 | 10 to 50 |  |  |  |  |
| O=C1CCC(N2C(=O)c3ccc(N4CCC([C@H](F)Cn5cc6cc(NC(=O)c7cnn8cccnc78)c(OCC7CC7)cc6n5)CC4)cc3C2=O)C(=O)N1 (stereo partly shown) [Example 171] | 70 to 80 | 50 to 100 |  |  |  |  |
| O=C1CCC(N2C(=O)c3ccc(CN4CCC(n5cc6cc(NC(=O)c7cnn8cccnc78)c(OCC7CC7)cc6n5)CC4)cc3C2=O)C(=O)N1 (stereo not shown) [Example 123] |  | ≥ 100 |  |  |  |  |
| CC1(CN2CCC(n3cc4cc(NC(=O)c5cnn6cccnc56)c(OCC5CC5)cc4n3)CC2)CN(c2ccc3c(c2)C(=O)N(C2CCC(=O)NC2=O)C3=O)C1 (stereo not shown) [Example 168] | ≥ 90 | 10 to 50 |  |  |  |  |
| COc1cc2nn(C3CCN(C4CN(c5ccc6c(c5)C(=O)N(C5CCC(=O)NC5=O)C6=O)C4)CC3)cc2cc1NC(=O)c1cnn2cccnc12 (stereo not shown) [Example 205] | 80 to 90 | < 10 |  |  |  |  |
| COc1cc2nn(C3CCN(CCc4ccc5c(c4)C(=O)N(C4CCC(=O)NC4=O)C5=O)CC3)cc2cc1NC(=O)c1cnn2cccnc12 (stereo not shown) [Example 144] |  | ≥ 100 |  |  |  |  |
| COc1cc2nn(C3CN(CC4CCN(c5ccc6c(c5)C(=O)N(C5CCC(=O)NC5=O)C6=O)CC4)C3)cc2cc1NC(=O)c1cnn2cccnc12 (stereo not shown) [Example 146] |  | ≥ 100 |  |  |  |  |
